Measurements as given in US6541463B1, “Inhibitors of type 5 and type 3 17β-hydroxysteroid dehydrogenase and methods for their use” (Endorecherche, Inc., priority 1998, dated 2003).

Tests used:
[1] = In vivo assay of oral bioavailability (plasma AUC 0-7 h by LCMS/MS); set-up: species or system male Sprague Dawley rats; conditions: for AUC(0-t): male, Sprague-Dawley [Crl:CD(SD)Br]
Method: In column 1, the oral bioavailability of preferred type 5 inhibitors, expressed in ng/mL.h, was determined as described below in “Other Tests, A-In Vivo Assays of Bioavailability of Human Type 5 17β-HSD Inhibitors”. Higher number are desirable. ND means that a determination was not done.
The measurements at various time intervals were for values greater than or equal to 1.0 ng/mL and less than or equal to 50 ng/mL.
Male Sprague-Dawley rats [Crl:CD(SD)Br] weighing 275-350 g were obtained from Charles-River Canada Inc. and housed 2 per cage during the acclimation period and individually during the study period. The animals were maintained under a regimen of 12 hours light: 12 hours dark (lights on at 08:00). Animals received certified Rodent feed (Lab Diet #5002, pellets) and tap water ad libitum. Rats were fasted (access to water only) starting on the evening prior to dosing.
Each compound to be tested was administered to three animals as a suspension in 0.4% methylcellulose by oral gavage at a dose of 0.5 mg/rat (1.0 ml/rat). Four to eight new compounds were tested each day and one group of animals received megestrol acetate (MGA) under the same conditions on each dosing day as a reference. […] Blood samples were immediately transferred into a refrigerated 0.75 ml Microtainer containing EDTA and kept in an ice-water bath until centrifugation at 3000 rpm for 10 minutes. Plasma separation was performed rapidly (less than 50 minutes) after blood collection. One aliquot of 0.25 ml of plasma was then transferred into a borosilicate tube (13×100) and was rapidly frozen on dry-ice. Plasma samples were kept at −80° C. until measurement of plasma concentration of the inhibitor(s) by LCMS/MS.
Aliquots of rat plasma (0.250 mL) were transferred to 13×100 mm borosilicate tubes. Water (1.0 mL) and internal standard solution (0.1 mL) were added to each sample and vortexed for 2 min. A mixture of N-butyl chloride and acetone (v:v, 7:3) (3 mL) was added to each sample and vortexed for 2 min. This step was repeated and the combined organic phases were evaporated to dryness under nitrogen in a Turbo Vap evaporator at 35° C. The residue was reconstituted with 1 mL of methanol and evaporated in a Turbo Vap evaporator at 35° C. The final extract was reconstituted into 0.1 mL of methanol/water (v:v, 75:25) and then transferred into a conical vial for injection into the mass spectrometer.
The assay procedure was performed by analyzing, in duplicate, rat plasma samples spiked at six different Type 5 inhibitor concentrations (1, 2, 5, 10, 20 and 50 ng/mL). The lower limit of quantitation (LOQ) was established at 1.0 ng/mL. Values lower than 1.0 ng/mL were expressed as below limit of quantification (BLQ). […]

glucocorticoid receptor = target: T1, glucocorticoid receptor (Rattus norvegicus, UniProt P06536); assay: Glucocorticoid receptor assay: inhibition of [3H]-dexamethasone binding, liver cytosol; conditions: for inhibition at 1 µM: read-out: % Inhibition Glucocorticold Receptor E^−6; for inhibition at 0.01 µM: read-out: % Inhibition Glucocorticold Receptor E^−8
T1 construct: from tissue; host or cells: liver cytosol of male Sprague-Dawley rats
T1 sequence (P06536 1-795): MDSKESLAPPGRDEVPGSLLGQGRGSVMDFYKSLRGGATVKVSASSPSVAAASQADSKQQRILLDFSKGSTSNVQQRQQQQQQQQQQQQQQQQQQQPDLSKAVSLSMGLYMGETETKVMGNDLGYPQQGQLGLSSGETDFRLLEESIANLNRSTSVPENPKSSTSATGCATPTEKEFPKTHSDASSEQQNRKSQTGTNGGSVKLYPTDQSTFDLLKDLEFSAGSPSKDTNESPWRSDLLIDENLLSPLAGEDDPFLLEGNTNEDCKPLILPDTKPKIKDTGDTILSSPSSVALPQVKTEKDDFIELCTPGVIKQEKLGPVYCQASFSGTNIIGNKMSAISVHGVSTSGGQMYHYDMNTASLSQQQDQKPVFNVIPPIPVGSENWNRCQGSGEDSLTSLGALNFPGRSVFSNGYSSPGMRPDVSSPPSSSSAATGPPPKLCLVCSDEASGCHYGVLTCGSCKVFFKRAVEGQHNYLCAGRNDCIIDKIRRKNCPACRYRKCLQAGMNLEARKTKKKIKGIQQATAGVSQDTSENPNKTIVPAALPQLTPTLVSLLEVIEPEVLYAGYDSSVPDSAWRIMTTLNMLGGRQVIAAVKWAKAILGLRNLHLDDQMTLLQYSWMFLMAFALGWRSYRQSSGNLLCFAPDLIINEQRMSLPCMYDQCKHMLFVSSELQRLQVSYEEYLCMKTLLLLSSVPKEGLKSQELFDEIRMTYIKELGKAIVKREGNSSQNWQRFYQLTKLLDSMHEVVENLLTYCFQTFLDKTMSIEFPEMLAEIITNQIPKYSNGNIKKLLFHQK
Method: The manner in which the percentage of inhibition is determined is described in “Other Tests; F-Glucocorticoid Receptor Assay”.
[6,7-^3H(N)]-Dexamethasone (39 Ci/mmol) was purchased from New England Nuclear (Lachine, Québec, Canada) while unlabeled dexametasone was obtained from Steraloids (Wilton, N.H.). All other chemicals were of analytical grade.
Stock solutions of the unlabeled steroids were kept at 4° C. in ethanol. The desired steroid solutions were then prepared by appropriate dilution in buffer B (10 mM Tris-HCl, 1.5 mM EDTA, 10 mM α-monothioglycerol, pH 7.4) containing 30% ethanol.
Male Sprague-Dawley rats weighing 200-300 g were obtained from Charles-River Inc. (St-Constant, Québec, Canada). The rats were killed by cervical dislocation and the liver were rapidly removed, dissected free from adhering tissue and frozen on dry-ice. Tissues were kept at −80° C. until use.
All procedures were performed at 4° C. Tissues were eminced and homogenized in 10 vol (w/v) of buffer A (25 mM Tris-HCl, 1.5 mM EDTA, 10 mM α-monothioglycerol, 10% glycerol, 10 mM sodium molybdate, pH 7.4) using a Polytron PT-10 homogenizer (Brinkmann Instruments, Canada) at a setting of 5 for two periods of 10 sec, with intervals of 10 sec for cooling. The homogenate was then centrifuged at 105,000×g for 90 min. The supernatant was used immediately for assay.
Glucocorticoid binding was measured using the dextran-coated charcoal adsorption technique. Incubations were performed at 0-4° C. for 16-18 h using 100 μl of cytosol, 100 μl of [^3H]-Dexamethasone (5 nM final) and 100 μl of unlabeled compounds at the indicated concentrations. Each concentration was done in triplicate. Assay was ended with 300 μl of DCC (2.5% Norit A and 0.25% Dextran T-70 in Buffer B). After 10 min of incubation, tubes were centrifuged at 2,000×g for 10 min. and decanted in vials with 6 ml of BCS liquid scintillation (New England Nuclear, Dupont). The radioactivity was measured in a Beckman counter at a counting efficiency of 35%.

[2] = 0.5 mg, Table 4′, oral, rat plasma

Row | Compound | AUC(0-t) [1, 2] | inhibition at 1 µM (glucocorticoid receptor; Table 4′, E^−6) | inhibition at 0.01 µM (glucocorticoid receptor; Table 4′, E^−8) | also measured
1 | CC(C)C[C@@H]1CC2C3C=CC4=CC(=O)CC[C@]4(C)C3CC[C@]2(C)C1=O (stereo partly drawn) [EM-1273-CS] |  |  |  | AUC(0-t) ([1]; rat, plasma, po, 0.5 mg/rat): 85 ± 26 ng·h/mL; % Inhibition Glucocorticoid Receptor E^−6 (glucocorticoid receptor; E^−6): 1%; % Inhibition Glucocorticoid Receptor E^−8 (glucocorticoid receptor; E^−8): 0%
2 | CC1(C)CC[C@@]2(CCC3C4CCc5cc(C(N)=O)ccc5C4CCC32C)OC1=O (stereo partly drawn) [EM-1404] | 3840 ± 197 ng·h/mL | 0% | 0% | 
3 | CC(=O)O[C@]1(C(=O)N(C)C)CCC2C3C=C(C)C4=CC(=O)CC[C@]4(C)C3CC[C@@]21C (stereo partly drawn) [EM-1159] |  |  |  | AUC(0-t) ([1]; rat, plasma, po, 0.5 mg): 452 ± 170 ng·h/mL; % Inhibition Glucocorticoid Receptor (glucocorticoid receptor; E^−6): 59%; % Inhibition Glucocorticoid Receptor (glucocorticoid receptor; E^−8): 8%
4 | CC1(C)CCC2(CCC3C4CCc5ccccc5C4CCC32C)OC1=O (stereo not drawn) [CS-224] | 18 ± 3.5 ng·h/mL | 5% | 1% | 
5 | COC(=O)CCCC(=O)O[C@]1(C(C)=O)CC[C@H]2[C@@H]3C=C(C)C4=CC(=O)CC[C@]4(C)[C@H]3CC[C@@]21C [EM-1007, 6-Methyl-4,6-pregnadien-17α-ol-3,20-dione 4′-Carbomethoxybutyrate] |  |  |  | Oral Bioavailability AUC 0-7h ([1]; AUC 0-7h): 16.4 ng·h/mL; % Inhibition Glucocorticoid Receptor (glucocorticoid receptor; E^−6): 0%; % Inhibition Glucocorticoid Receptor (glucocorticoid receptor; E^−8): 0%
6 | COc1ccc2c(c1)C(=O)CC1C3CCC4(CCC(C)(C)C(=O)O4)C3(C)CCC21O (stereo not drawn) [EM-1386] | 5600 ± 789 ng·h/mL | 0% | 3% | 
7 | C[C@]12CCC3c4cc([N+](=O)[O-])c(O)cc4CCC3C1CC[C@@]21CCCC(=O)O1 (stereo partly drawn) [EM-1124, 2-Nitro-1,3,5(10)-estraetriene-3-ol-17(R)-spiro-2′-(6′-oxo)tetrahydropyran] |  | 1% | 1% | AUC(0-t) ([1]; rat, plasma, po, 0.5 mg, Table 4′, cell marked (8 h)): 5.1 ± 1 ng·h/mL
8 | CC1(C)CCC2(CCC3C4CCc5c(cc(Cl)c(O)c5Cl)C4CCC32C)OC1=O (stereo not drawn) [EM-1391-CS] | 28 ± 3.4 ng·h/mL | 2% | 0% | 
9 | CCC[C@@H]1CC2C3C=CC4=CC(=O)CC[C@]4(C)C3CC[C@]2(C)C1=O (stereo partly drawn) [EM-1097] |  |  |  | AUC(0-t) ([1]; rat, plasma, po, 0.5 mg/rat): 122 ± 5.7 ng·h/mL; % Inhibition Glucocorticoid Receptor E^−6 (glucocorticoid receptor; E^−6): 0%; % Inhibition Glucocorticoid Receptor E^−8 (glucocorticoid receptor; E^−8): 0%
10 | COCCOc1cc2c(cc1C(N)=O)C1CC[C@@]3(C)C(CC[C@@]34CCC(C)(C)C(=O)O4)C1CC2 (stereo partly drawn) [EM-1424, 2-Carbamoyl-3-(2″-methoxyethyloxy)-1,3,5(10)-estratrien 17(R)-spiro-2′-(5′,5′-dimethyl-6′-oxo)tetrahydropyran] | 368 ± 70 ng·h/mL | 0% | 0% | 
11 | C[C@]12CCC3c4ccc(O)cc4CCC3C1CC[C@@]21CCCC(=O)O1 (stereo partly drawn) [EM-919, 1,3,5(10)-estratrien-3-ol-17(R)-spiro-2′(6′-oxo)tetrahydropyran] | 4.8 ± 0.8 ng·h/mL |  |  | % Inhibition Glucocorticold Receptor *E^−5 (glucocorticoid receptor; Table 4′, starred values, E^−5): 33* %; % Inhibition Glucocorticold Receptor *E^−7 (glucocorticoid receptor; Table 4′, starred values, E^−7): 0* %
12 | CCC(=O)O[C@]1(C(C)=O)CCC2C3C=C(C)C4=CC(=O)C[C@H](C)[C@]4(C)C3CC[C@@]21C (stereo partly drawn) [CS-243] |  |  |  | AUC(0-t) ([1]; rat, plasma, po, 0.5 mg): 11 ± 2.5 ng·h/mL; % Inhibition Glucocorticoid Receptor (glucocorticoid receptor; E^−6): 29%; % Inhibition Glucocorticoid Receptor (glucocorticoid receptor; E^−8): 0%
